Test results taken from ChEMBL document CHEMBL1135425, “Antitumor agents. 213. Modeling of epipodophyllotoxin derivatives using variable selection k nearest neighbor QSAR method” (J Med Chem, 2002).

system: Nucleic Acid; test: Ability to form intracellular covalent DNA topoisomerase II complex; activity expressed as the percentage of cellular protein-DNA complex formed (exp-2); type: functional, cell-based

Q: Which Complex formation does the source give for `COc1cc([C@@H]2c3cc4c(cc3C(Nc3ccccc3)[C@H]3COC(=O)[C@H]23)OCO4)cc(O)c1O` (stereo not given in full) here?
A: 128%

target: T1, DNA topoisomerase II (Homo sapiens) (UniProt P11388+Q02880); test: Percentage of intracellular covalent DNA-topoisomerase II complexes formed; type: cell-based

Q: For `CNC(=O)N[C@@H]1c2cc3c(cc2[C@@H](c2cc(OC)c(O)c(OC)c2)[C@H]2C(=O)OC[C@@H]21)OCO3`, which Complex formation is on record?
A: 81%

Q: `COc1cc([C@@H]2c3cc4c(cc3[C@@H](Nc3ccc(NC(=O)c5cc([N+](=O)[O-])cn5C)cc3)[C@H]3COC(=O)[C@H]23)OCO4)cc(OC)c1O` was tested. Which Complex formation did it give?
A: 100%

Q: Which Complex formation does the source give for `COc1cc([C@@H]2c3cc(O)c(O)cc3[C@@H](Nc3ccc([N+](=O)[O-])cc3)[C@H]3COC(=O)[C@H]23)cc(OC)c1OC` here?
A: 23%

Q: Which Complex formation does the source give for `COc1cc([C@@H]2c3cc4c(cc3[C@@H](Sc3ccc(O)cc3)[C@H]3COC(=O)[C@H]23)OCO4)cc(OC)c1O` here?
A: 10%

Q: How did the Complex formation turn out when `COc1cc([C@@H]2c3cc4c(cc3[C@@H](Nc3ccc(N5CCOCC5)cc3)[C@H]3COC(=O)[C@H]23)OCO4)cc(OC)c1O` was run?
A: 140%

Q: Which Complex formation does the source give for `COc1cc([C@@H]2c3cc4c(cc3[C@@H](NC(=O)c3cccc([N+](=O)[O-])c3)[C@H]3COC(=O)[C@H]23)OCO4)cc(OC)c1O` here?
A: 86%

Q: How did the Complex formation turn out when `COC(=O)c1cc(N[C@@H]2c3cc4c(cc3[C@@H](c3cc(OC)c(O)c(OC)c3)[C@H]3C(=O)OC[C@@H]32)OCO4)ccc1O` was run?
A: 83%

Q: `COc1cc([C@@H]2c3cc4c(cc3[C@@H](Nc3cccc(O)c3)[C@H]3COC(=O)[C@H]23)OCO4)cc(OC)c1O` was tested. Which Complex formation did it give?
A: 290%

Q: `COc1cc([C@@H]2c3cc4c(cc3[C@@H](Nc3ccc(-c5nc6ccccc6[nH]5)cc3)[C@H]3COC(=O)[C@H]23)OCO4)cc(OC)c1O` was tested. Which Complex formation did it give?
A: 128%

Q: For `COc1cc([C@@H]2c3cc(O)c(O)cc3[C@@H](Nc3ccc([N+](=O)[O-])cc3)[C@H]3COC(=O)[C@H]23)cc(OC)c1O`, which Complex formation is on record?
A: 99%

Q: With `COc1cc([C@@H]2c3cc(O)c(O)cc3[C@@H](Nc3cccc(O)c3)[C@H]3COC(=O)[C@H]23)cc(OC)c1O` as the compound, how does the Complex formation read?
A: 18%

Q: `COc1cc([C@@H]2c3cc4c(cc3C(Nc3ccc(O)cc3)[C@H]3COC(=O)[C@H]23)OCO4)cc(O)c1O` (stereo not given in full) was tested. Which Complex formation did it give?
A: 83%

Q: With `COc1cc([C@@H]2c3cc4c(cc3[C@@H](NC(=O)Nc3ccc(F)cc3)[C@H]3COC(=O)[C@H]23)OCO4)cc(OC)c1O` as the compound, how does the Complex formation read?
A: 118%

target: T1, DNA topoisomerase II (Homo sapiens); test: Ability to form intracellular covalent DNA topoisomerase II complex; activity expressed as the percentage of cellular protein-DNA complex formed (exp-1); type: cell-based

Q: For `COc1cc([C@@H]2c3cc4c(cc3C(Nc3ccccc3)[C@H]3COC(=O)[C@H]23)OCO4)cc(O)c1O` (stereo not given in full), which Complex formation is on record?
A: 105%
